Measurements reported in US9790496B2, “Microrna compounds and methods for modulating MIR-21 activity” (Regulus Therapeutics, Inc., priority 2011, dated 2017).
Where “and” joins values, the source holds several entries; their conditions need not be identical. Equal values may be shown once. Strand notation (5' to 3'): a small letter for the sugar, then the base; units joined by * are phosphorothioate-linked, units joined directly phosphodiester-linked; [ ] holds rarer units or linkages, { } end groups; capitals alone tell only the bases. e = 2'-O-(2-methoxyethyl) (MOE); f = 2'-fluoro

Legend:
[1] = system: miR-21; assay: miR-21 luciferase sensor assay in Hela cells; format: cell-based; conditions: Hela cells
Protocol: The compounds were assessed for miR-21 inhibitory activity in a luciferase assay. A microRNA luciferase sensor construct was engineered using pGL3-MCS2 (Promega). The construct was introduced into Hela cells to test the ability of anti-miR compounds to inhibit activity of miR-21. In this assay, miR-21 present in the Hela cells binds to its cognate site(s) in the luciferase sensor construct, and suppresses luciferase expression. When the appropriate anti-miR is introduced into the cells, it binds to miR-21 and relieves suppression of luciferase expression. Thus, in this assay anti-miRs that are effective inhibitors of miR-21 expression will cause an increase in luciferase expression.
Day 1: Hela cells (ATCC), stably transfected with a luciferase construct engineered to contain a sequence complementary of miR-21, were seeded in T-170 flasks (BD Falcon) at 3.5*10^6 cells/flask. Hela cells were grown in Dulbecco's Modified Eagle Medium with High Glucose (Invitrogen).
Day 2: Each flask of Hela cells was transfected with 0.5 ug of a phRL sensor plasmid (Promega) expressing Renilla to be used in normalization. Hela cells were transfected using 20 ul Lipofectamine 2000/flask (Invitrogen). After 4 hours of transfection, cells were washed with PBS and trypsinized. Hela cells were plated at 40 k/well in 24 well plates (BD Falcon) and left overnight.
Day 3: Hela cells were transfected with anti-miRs using Lipofectin (Invitrogen) at 2.5 ul Lipofectin/100 nM ASO/ml Opti-MEM I Reduced Serum Medium (Invitrogen) for 4 hours. After ASO transfection, Hela cells were refed with Dulbecco's Modified Eagle Medium with High Glucose (Invitrogen).
Day 4: Hela cells are passively lysed and luciferase activity measured using the Dual-Luciferase Reporter Assay System (Promega).
The luciferase assay was performed to test the ability of anti-miRs with the nucleoside patterns described herein to inhibit the activity of miR-21. Results were compared to a ‘mock’ treatment, in which cells received no anti-miR treatment. The experiment was repeated and results of two experimental replicates are shown in the following Table B, as the luciferase value normalized to beta-galactosidase activity.
The luciferase assay was performed as described herein to test the ability of anti-miRs in Table F to inhibit the activity of miR-21. Results were compared to a ‘mock’ treatment, in which cells received no anti-miR treatment. The experiment was repeated and results of two experimental replicates are shown in the following Table D, as fold change in luciferase value relative to the mock treatment.

[2] = system: ischemia reperfusion injury (IRI) model; assay: Unilateral IRI model: collagen area fraction of kidney tissue; format: in vivo, mouse
Protocol: (§1) A model of ischemia reperfusion injury (IRI) is created in the mouse through unilateral or bilateral clamping of kidney arteries, which leads to tubule damage, inflammation, and fibrosis. Kidney dysfunction can occur either early (<5 days) or late (>7 days) in this model, with the early time points useful to test candidate agents for the treatment of acute kidney injury, and the later time points useful to model chronic fibrosis.
(§2) Anti-miR-21 compounds were tested in the unilateral IRI model. Unilateral IRI was induced for a period of 30 minutes. Treatment groups were as follows: sham IRI procedure; IRI with PBS administered subcutaneously; IRI with anti-miR-21 compound 25070 administered intraperitoneally at a dose of 20 mg/kg; the 2′-fluoro/2′-MOE modified anti-miR-21 25919 administered intraperitoneally at a dose of 20 mg/kg; and a 2′-fluoro/2′ modified mismatch anti-miR-21 (having three mismatches to the sequence of miR-21) 25319 administered intraperitoneally at a dose of 20 mg/kg. PBS or anti-miR compound was administered on days 5, 6, and 7 following IRI, and animals were sacrificed 14 days after IRI. As anti-miR compound is administered 5 days following the injury to the kidney, or later, when fibrosis has already occurred to some extent, this treatment regimen is considered a therapeutic regimen, rather than a prophylactic regimen.
(§3) Kidney tissue was collected for analysis of collagen 1A1 and collagen 3A1 expression (shown in Table O), and collagen area fraction (shown in Table P).
(§4) A similar study was performed with the same treatment groups and additional days of treatment. In this study, treatments were administered intraperitoneally at days 5, 6, 7, 14, and 21 following the IRI procedure Animals were sacrificed on Day 27, and kidney tissue was collected for analysis of collagen 1A1 and collagen 3A1 expression, as well as collagen area fraction.

[3] = system: collagen 1A1 and collagen 3A1 expression in kidney, unilateral ureteral obstruction (UUO) model; assay: UUO model of kidney fibrosis: kidney collagen 1A1 and collagen 3A1 expression by real-time PCR; format: in vivo, mice; conditions: UUO, 20 mg/kg at days -3, -1, +5 (prophylactic); kidney at day 11; real-time PCR normalized to GAPDH then sham; 20 mg/kg
Protocol: Unilateral ureteral obstruction (UUO) is a well-established experimental model of renal injury leading to interstitial fibrosis, and thus is used as an experimental model that is reflective of human kidney disease. UUO is induced by surgically ligating a single ureter. As fibrosis is characterized by an increase in collagen, the presence and extent of kidney fibrosis may be determined by measuring collagen content. Both collagen 1A1 (Col 1A1) and collagen 3A1 (Col 3A1) are measured to assess collagen content. Kidney fibrosis may be visualized by staining tissue samples with picro-sirius red to detect increases in collagen content. Kidney fibrosis may also be observed by measuring the amount of hydroxyproline, which is a major component of collagen, in a sample.
The cEt-containing anti-miR-21 compounds found to be active in the luciferase assay were tested in the UUO model of kidney fibrosis. 25919 comprising 2′-MOE and 2′-fluoro modifications is known to inhibit miR-21 activity in vivo and was included as a positive control. Groups of 8 animals each were treated as follows: UUO only, UUO with PBS, or UUO with anti-miR-21 compound. Relative to the day of the UUO procedure, PBS or anti-miR-21 compound was administered at days −3, −1, and +5. Anti-miR-21 compounds were administered at a dose of 20 mg/kg. As the anti-miR compounds were administered prior to the UUO procedure, this dosing regimen is considered a prophylactic treatment. At day 11, animals were sacrificed and kidney was isolated for measurement of collagen expression. Collagen expression was measured by real-time PCR and normalized first to GAPDH and then to the sham control animals. […]

[4] = system: collagen 1A1 and collagen 3A1 expression in kidney, ischemia reperfusion injury (IRI) model; assay: Unilateral ischemia reperfusion injury (IRI) model: kidney collagen 1A1 and collagen 3A1 expression; format: in vivo, mouse; conditions: unilateral IRI
Protocol: as §1, §2, §3, §4
In order to assess the flexibility of administration of the anti-miR-21 compound 25070, the activity of the compound in the 14 day study above, where anti-miR-21 was administered at […] following the IRI procedure, to a different 14 day study where anti-miR-21 was administered intraperitoneally at days 3, 5, and 7 following the IRI procedure.

[5] = Ex vivo liver homogenate stability assay (HPLC-TOF MS)
[6] = system: ischemia reperfusion injury/nephrectomy (IR/Nx) model; assay: Ischemia reperfusion injury/nephrectomy (IR/Nx) model: urinary albumin to creatinine ratio; format: in vivo, mouse; conditions: s.c. 20 mg/kg on days 2, 3, 4, 8, urine day 9, PBS control 127, nephrectomy-only 16
Excerpt: An ischemia reperfusion injury/nephrectomy (IR/Nx) model is created in the mouse through temporary unilateral clamping of an artery in one kidney, which leads to tubule damage, inflammation, and fibrosis, followed by removal of the second kidney at a later timepoint. In this model, the acute kidney dysfunction phase is useful to test candidate agents for the treatment of acute kidney injury (i.e. up to about the first 5 days), and the later phases of kidney dysfunction are useful to model chronic fibrosis (i.e. after about the first 5 days).
Anti-miR-21 compounds were tested in the IR/Nx model. 25109, a 6-base mismatch to miR-21, was used as a control compound ([…]; where nucleosides not followed by a subscript indicate β-deoxynucleosides; nucleosides followed by a subscript “E” indicate 2′-MOE nucleosides; nucleosides followed by a subscript “S” indicate S-cEt nucleosides; and all internucleoside linkages are phosphorothioate internucleoside linkages).
Unilateral IR was induced for a period of 30 minutes. Treatment groups were as follows: sham IR procedure; IR with PBS administered subcutaneously; IR with mismatched control 25109 administered subcutaneously at a dose of 20 mg/kg; IR with anti-miR-21 compound 25070 administered subcutaneously at a dose of 20 mg/kg; and IR with anti-miR-21 compound 25923 administered subcutaneously at a dose of 20 mg/kg. PBS or anti-miR was administered on days 2, 3, 4, and 8 following IR. On day 8, the healthy kidney was removed by nephrectomy from each animal, and animals were sacrificed on day 9. Just prior to sacrifice, urine was collected by direct bladder puncture.
Urinary albumin to creatinine ratio was measured in the urine from each mouse. […] The geometric mean of the albumin to creatinine ratio in each group of mice was 16 μgAlb/mgCr (nephrectomy-only control), 127 μgAlb/mgCr (IR/Nx, PBS control), 140 μgAlb/mgCr (IR/Nx, 25109 control), 40 μgAlb/mgCr (IR/Nx, 25070), and 31 μgAlb/mgCr (IR/Nx, 25923). Blood urea nitrogen and serum creatinine levels were similar across all IR/Nx mice, and were elevated relative to nephrectomy-only control mice (data not shown).

[7] = 4 nM oligonucleotide, mock transfection 50
[8] = .16 nM oligonucleotide, mock transfection 45
[9] = .8 nM oligonucleotide, mock transfection 33
[10] = 20 mg/kg intraperitoneally on days 5, 6, 7, sacrifice 14 days after IRI, 20 mg/kg
[11] = 20 mg/kg intraperitoneally on days 5, 6, 7, sacrifice 14 days after IRI, group mean
[12] = intraperitoneally on days 5, 6, 7, 14, 21, sacrifice Day 27
[13] = 5 μM in liver homogenate (50 mg tissue per ml), 24 hours at 37° C.

Substance: UECEAFAFCFAFUFCFAFGFUFCEUEGEAFUFAFAFGFCFUEAE (eU*eC*fA*fA*fC*fA*fU*fC*fA*fG*fU*eC*eU*eG*fA*fU*fA*fA*fG*fC*eU*eA) [Compound 25919, positive control, reference compound]
- luciferase value normalized to beta-galactosidase activity [1, 7]: 84
- luciferase value normalized to beta-galactosidase activity [1, 8]: 40
- luciferase value normalized to beta-galactosidase activity [1, 9]: 53
- Collagen Area Fraction (#), individual animal [2, 10]: 7.093 and 8.254 and 8.095 and 8.559 and 8.681 and 6.31 and 8.416 and 9.905
- Collagen Area Fraction (#), Mean [2, 11]: 8.2
- Collagen Area Fraction (#), individual animal [2, 12]: 11.882 and 9.755 and 9.506 and 12.654 and 20.319 and 11.551 and 12.224 and 14.468
- Collagen 1A1 (Normalized Expression), individual animal [3]: 150.2 and 54.2 and 84.6 and 67.7 and 78.7 and 62.2 and 89.2 and 106.2
- Collagen 3A1 (Normalized Expression), individual animal [3]: 67.1 and 33.9 and 87.6 and 47.3 and 67.7 and 46.7 and 47.0 and 57.8
- Collagen 1A1 (Normalized Expression), individual animal [4, 10]: 108.7 and 103.9 and 29.5 and 95.8 and 35.5 and 42.2 and 64.1 and 96.4
- Collagen 3A1 (Normalized Expression), individual animal [4, 10]: 87.5 and 72.3 and 14.3 and 104 .4 and 27.1 and 34.9 and 56.1 and 82.8
- Collagen 1A1 (Normalized Expression), Mean [4, 11]: 72.0
- Collagen 1A1 (Normalized Expression), individual animal [4, 12]: 75.5 and 50.4 and 49.2 and 43.2 and 41.7 and 53.6 and 44.8 and 28.0
- Collagen 3A1 (Normalized Expression), individual animal [4, 12]: 40.2 and 43.1 and 34.5 and 35.7 and 41.1 and 36.9 and 24.5 and 22.9

Substance: AECSATCSAGTCSTGAUSAAGCSTAS (ACATCAGTCTGATAAGCTA; 2'-MOE and cEt modifications) [Compound 25923]
- compound lacking the 3'-terminal nucleoside [5, 13]: about 18%
- compound present as the full-length compound [5, 13]: About 68%
- ex vivo (liver) N %↓ ([5]; 5 μM oligonucleotide in liver homogenate (50 mg tissue per ml), 24 hours, 37° C., decrease of full-length compound): 17%
- ex vivo (liver) % N-1 ([5]; 5 μM oligonucleotide in liver homogenate, 24 hours, 37° C., compound lacking one terminal nucleoside): 13%
- ex vivo (liver) % Endo ([5]; 5 μM oligonucleotide in liver homogenate, 24 hours, 37° C., endonuclease products): 2-3%

Substance: AEASATCSTGTCSTCAUSAATASAAE [Compound 25109, reference compound]
- geometric mean of the urinary albumin to creatinine ratio [6]: 140 μgAlb/mgCr

Substance: TE^MeCEAEAECSAETECSAEGETECSTEGEAEUSAEAEGECSTEAE (TCAACATCAGTCTGATAAGCTA; listed as DNA, chemistry not fully specified) [Compound 25068]
- luciferase value normalized to beta-galactosidase activity [1, 7]: 64
- luciferase value normalized to beta-galactosidase activity ([1]; 20 nM oligonucleotide, mock transfection 47): 86
- luciferase value normalized to beta-galactosidase activity ([1]; 100 nM oligonucleotide, mock transfection 40): 97
- luciferase value normalized to beta-galactosidase activity [1, 8]: 45
- luciferase value normalized to beta-galactosidase activity [1, 9]: 54
- inhibition of miR-21 in the luciferase assay (in words) [1]: demonstrated inhibition of miR-21 in a dose-dependent manner
- Collagen 1A1 (Normalized Expression), individual animal [3]: 84.7 and 75.1 and 85.5 and 89.1 and 90.4 and 125.8 and 124.4
- Collagen 3A1 (Normalized Expression), individual animal [3]: 64.8 and 56.2 and 47.4 and 76.2 and 57.0 and 63.0 and 59.6
